14 compounds from ChEMBL document CHEMBL1148595, “Identification of Darmstoff analogs as selective agonists and antagonists of lysophosphatidic acid receptors” (Bioorg Med Chem Lett, 2006) can be followed below.

A value given as a limit tells only on which side of the number the result lay.

Experiment [1] deals with T1, Peroxisome proliferator-activated receptor gamma (Homo sapiens) (UniProt P37231).
T1 sequence (whole entry): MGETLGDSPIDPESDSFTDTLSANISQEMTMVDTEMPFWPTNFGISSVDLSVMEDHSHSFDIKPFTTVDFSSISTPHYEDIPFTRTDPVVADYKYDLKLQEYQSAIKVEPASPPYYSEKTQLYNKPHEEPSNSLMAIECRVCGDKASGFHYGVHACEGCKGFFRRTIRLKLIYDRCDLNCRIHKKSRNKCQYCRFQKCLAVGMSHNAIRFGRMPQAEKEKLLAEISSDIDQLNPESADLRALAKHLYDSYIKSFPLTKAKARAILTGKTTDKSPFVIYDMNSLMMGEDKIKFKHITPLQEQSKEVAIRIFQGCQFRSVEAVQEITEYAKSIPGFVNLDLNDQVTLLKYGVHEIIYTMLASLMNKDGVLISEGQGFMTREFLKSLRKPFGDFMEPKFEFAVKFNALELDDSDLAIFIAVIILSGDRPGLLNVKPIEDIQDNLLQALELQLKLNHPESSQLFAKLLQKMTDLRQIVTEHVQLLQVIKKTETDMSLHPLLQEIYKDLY
The experiment can be described thus: PPARgamma activation in CV1 cells. It is filed as cell-based. To be noted: CV-1, filed as agonist.

For experiment [2], the target named is T2, Lysophosphatidic acid receptor 3 (Rattus norvegicus, UniProt Q8K5E0).
T2 sequence (Q8K5E0 whole entry): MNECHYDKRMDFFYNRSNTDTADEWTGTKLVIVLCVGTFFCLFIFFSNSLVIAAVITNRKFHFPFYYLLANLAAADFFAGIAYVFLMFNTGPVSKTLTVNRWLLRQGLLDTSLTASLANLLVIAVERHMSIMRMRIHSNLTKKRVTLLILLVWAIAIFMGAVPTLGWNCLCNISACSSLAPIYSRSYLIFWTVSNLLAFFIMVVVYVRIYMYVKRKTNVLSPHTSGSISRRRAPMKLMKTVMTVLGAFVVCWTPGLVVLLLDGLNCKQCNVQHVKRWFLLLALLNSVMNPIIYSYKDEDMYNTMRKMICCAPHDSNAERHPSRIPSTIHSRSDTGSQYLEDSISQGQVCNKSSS
Put plainly: (§1) Activity at LPA3 receptor in RH7777 rat hepatoma cell line. It is filed as cell-based.

In a further experiment the target is Autotaxin (Homo sapiens, UniProt Q13822). Put plainly: Inhibition of lysophospholipase D autotaxin. To be noted: for residual activity: values are per cent of control.
For experiment [3], the target named is Lysophosphatidic acid receptor 2 (Homo sapiens, UniProt Q9HBW0). Put plainly: Activity at LPA2 receptor in RH7777 rat hepatoma cell line. It is filed as cell-based.
Chain of Lysophosphatidic acid receptor 2 (Q9HBW0 whole entry): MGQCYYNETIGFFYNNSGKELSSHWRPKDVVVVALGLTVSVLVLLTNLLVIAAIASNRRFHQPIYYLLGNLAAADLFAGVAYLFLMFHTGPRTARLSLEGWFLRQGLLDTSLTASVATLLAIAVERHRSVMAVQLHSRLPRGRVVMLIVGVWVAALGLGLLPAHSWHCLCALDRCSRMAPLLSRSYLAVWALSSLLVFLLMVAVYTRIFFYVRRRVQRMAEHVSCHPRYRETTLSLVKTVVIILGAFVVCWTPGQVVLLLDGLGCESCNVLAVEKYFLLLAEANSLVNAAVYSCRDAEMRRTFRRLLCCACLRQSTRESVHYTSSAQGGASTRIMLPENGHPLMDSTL
Experiment [4] concerns the target T3, Lysophosphatidic acid receptor 3 (Rattus norvegicus) (UniProt Q8K5E0).
T3 sequence (whole entry): T2 sequence (Q8K5E0 whole entry)
Described as §1. It is filed as cell-based.

For experiment [5], the target named is Lysophosphatidic acid receptor 1 (Rattus norvegicus, UniProt P61794). The experiment can be described thus: Activity at LPA1 receptor in RH7777 rat hepatoma cell line.
Chain of Lysophosphatidic acid receptor 1 (P61794 whole entry): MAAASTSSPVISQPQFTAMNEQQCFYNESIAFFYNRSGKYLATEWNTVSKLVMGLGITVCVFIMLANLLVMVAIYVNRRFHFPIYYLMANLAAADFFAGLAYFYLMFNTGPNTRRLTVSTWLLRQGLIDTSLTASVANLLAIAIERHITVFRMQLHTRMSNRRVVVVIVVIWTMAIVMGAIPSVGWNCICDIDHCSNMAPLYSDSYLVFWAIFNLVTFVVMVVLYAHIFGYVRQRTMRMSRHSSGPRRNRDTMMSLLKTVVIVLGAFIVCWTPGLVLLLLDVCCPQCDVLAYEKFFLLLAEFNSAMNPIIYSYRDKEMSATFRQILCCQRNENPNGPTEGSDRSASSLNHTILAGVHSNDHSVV

With `CCCCCCC/C=C/CCCCCCCC[C@H]1OC[C@@H](COP(=O)(O)O)O1`, the Activity entry in experiment [1] was “Agonist”. In experiment [2], the IC50 (usually the concentration at which inhibition is half-maximal) turned out to be 209 nM and affinity was put at a Ki of 77 nM. Further, on Autotaxin, the IC50 is 178 nM and the residual activity (usually the activity still measured, relative to the control) was found to be 25%.

For `CCCCCCC/C=C/CCCCCCCCC1OCC(COP(O)(O)=S)O1` (stereo unspecified), in experiment [1], the Activity result is “Agonist”. Also, the EC50 (usually the midpoint of the concentration-response curve) in experiment [3] came out at 1170 nM; in experiment [2], 639 nM; in experiment [5] it was 981 nM. Further, the Emax (commonly the greatest response seen or fitted, relative to the assay's reference) was found to be 87% in experiment [3] and 73% in experiment [4]. At Autotaxin, it took 415 nM to reach half-maximal inhibition (IC50). The residual activity at Autotaxin came out at 51%.

As to `CCCCCCC/C=C/CCCCCCCC[C@@H]1OC[C@H](COP(=O)(O)O)O1`, the Activity entry in experiment [1] was “Agonist”. In experiment [3], this compound showed an EC50 of 1710 nM and an Emax of 42%. In experiment [2], the 50% inhibitory concentration (IC50) was found to be 136 nM and the affinity, expressed as Ki, was 83 nM. At Autotaxin, this compound returned a half-maximal inhibitory concentration (IC50) of 97 nM and a residual activity of 28%.

Regarding `CCCCCCC/C=C/CCCCCCCC[C@@H]1OC[C@H](COP(O)(O)=S)O1`, in experiment [1], the Activity entry is “Agonist”. Further, the EC50 in experiment [3] worked out at 1090 nM; in experiment [2], 194 nM; in experiment [5], 1410 nM. The figures for the maximal response (Emax) in experiment [3] and in experiment [4] were 85% and 113%, respectively. The same compound showed an IC50 at Autotaxin of 344 nM. On Autotaxin, this compound came in with a residual activity of 66%.

Take `CCCCCCC/C=C/CCCCCCCC[C@H]1OC[C@@H](COP(O)(O)=S)O1`: the Activity result in experiment [1] is “Agonist”. Further, the EC50 in experiment [3] was determined as 1320 nM; in experiment [2], 265 nM; in experiment [5] it was 1560 nM. Also, the maximum response (Emax) in experiment [3] is 87%; in experiment [4], 78%. At Autotaxin, this compound showed an IC50 of 403 nM. The compound further came in with a residual activity at Autotaxin of 60%.

Take `CCCCCCCCc1ccc(CCCCCCC2OCC(COP(O)(O)=S)O2)cc1` (stereo unspecified): the Activity result in experiment [1] is “Agonist”. Also, the EC50 in experiment [2] was 692 nM. The compound further returned an Emax in experiment [4] of 87%. On Autotaxin, the half-inhibitory concentration (IC50) was determined as 449 nM and the residual activity was 55%.

In the case of `CCCCCCC/C=C/CCCCCCCCC1OCC(COP(=O)(O)O)O1` (stereo unspecified), the Activity result in experiment [1] is “Agonist”. The EC50 in experiment [3] was > 10000 nM. Moreover, in experiment [5], half-maximal inhibition (IC50) was put at 915 nM; the inhibitory constant (Ki) (commonly the dissociation constant of the complex between target and ligand, obtained from inhibition or displacement) was found to be 497 nM. On Autotaxin, the IC50 stood at 141 nM and the residual activity stood at 30%.

For `CCCCCCCCCCCCC1OCC(COP(=O)(O)O)O1` (stereo unspecified), the Activity result in experiment [1] is “Agonist”. In experiment [3], this compound had a 50% inhibitory concentration (IC50) of 7.43 µM and an inhibitory constant (Ki) of 745 nM. In experiment [5], this compound registered a half-maximal inhibitory concentration (IC50) of 1110 nM and a Ki of 652 nM. Also, the residual activity at Autotaxin is 26%.

`CCCCCCCCc1ccc(CCCCCCC2OCC(COP(=O)(O)O)O2)cc1` (stereo unspecified): the Activity result in experiment [1] was “Agonist”. In experiment [2], this compound gave an IC50 of 504 nM and an inhibition constant (Ki) of 171 nM. In experiment [5], this compound returned a half-maximal inhibitory concentration (IC50) of 4660 nM and a Ki of 1930 nM. For the same compound, on Autotaxin, the half-inhibitory concentration (IC50) was 106 nM and the residual activity is 10%.

For the compound `CCCCCCC/C=C/CCCCCCCC[C@@H]1OC[C@@H](COP(=O)(O)O)O1`, the Activity result in experiment [1] is “Agonist”. Also, the half-maximal effective concentration (EC50) in experiment [3] and in experiment [5] was > 10000 nM in each case. The IC50 in experiment [2] stood at 484 nM; against Autotaxin it was 238 nM. The affinity in experiment [2], expressed as Ki, was 241 nM. The compound further yielded a residual activity on Autotaxin of 46%.

As for `CCCCCCC/C=C/CCCCCCCC[C@H]1OC[C@H](COP(=O)(O)O)O1`, the Activity result in experiment [1] was “Agonist”. In experiment [3], the concentration for a half-maximal effect (EC50) is 1170 nM and the maximal effect (Emax) worked out at 39%. At Autotaxin, this compound showed a half-inhibitory concentration (IC50) of 120 nM and a residual activity of 30%.

On to `CCCCCCC/C=C/CCCCCCCC[C@@H]1OC[C@@H](COP(O)(O)=S)O1`, for which the Activity entry in experiment [1] was “Agonist”. Moreover, the EC50 is 1540 nM in experiment [3], 204 nM in experiment [2] and 2260 nM in experiment [5]. Besides, the Emax stood at 72% in experiment [3] and 102% in experiment [4]. Also, on Autotaxin, inhibition was half-maximal at 363 nM (IC50). The compound also came in with a residual activity at Autotaxin of 64%.

With `CCCCCCC/C=C/CCCCCCCC[C@H]1OC[C@H](COP(O)(O)=S)O1`, the Activity entry in experiment [1] was “Agonist”. The values for the EC50 in experiment [3], in experiment [2] and in experiment [5] were 1300 nM, 127 nM and 1580 nM, respectively. Moreover, the Emax in experiment [3] is 77%; in experiment [4] it was 127%. On Autotaxin, this compound returned a half-inhibitory concentration (IC50) of 252 nM. Moreover, the residual activity at Autotaxin was 74%.

Regarding `C/C=C/C/C=C/C/C=C/CCCCCCCCC1OCC(COP(=O)(O)O)O1` (stereo unspecified), the Activity result in experiment [1] was “Agonist”. In addition, the half-maximal effective concentration (EC50) in experiment [3] stood at 1710 nM; in experiment [2], 7590 nM; in experiment [5] it was 3600 nM. The Emax was determined as 51% in experiment [3] and 29% in experiment [4]. On Autotaxin, this compound registered an IC50 of 803 nM. For the same compound, the residual activity on Autotaxin turned out to be 54%.
